According to patent publication US20050009837A1, “Modulators of lipid metabolism and methods of use” (City of Hope, priority 2003, published 2005):

Tests used:
[1] = target: T1, LXRβ (Homo sapiens, UniProt P55055); assay: Transient transfection assay Gal-LXRβ + RXR LBD, UASGx4 TK Luc reporter, CV-1 cells; format: cell-based
T1 construct: expressed in transfected cells; host or cells: CV-1 cells
T1 sequence (P55055 222-460 limits assumed): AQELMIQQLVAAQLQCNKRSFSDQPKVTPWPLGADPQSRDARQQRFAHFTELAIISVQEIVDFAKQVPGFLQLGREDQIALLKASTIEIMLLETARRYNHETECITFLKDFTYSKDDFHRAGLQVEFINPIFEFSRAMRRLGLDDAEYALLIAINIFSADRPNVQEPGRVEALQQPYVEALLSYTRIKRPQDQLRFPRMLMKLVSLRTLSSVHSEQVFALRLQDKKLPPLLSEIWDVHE
T1 sequence (P19793 227-458 partner limits assumed): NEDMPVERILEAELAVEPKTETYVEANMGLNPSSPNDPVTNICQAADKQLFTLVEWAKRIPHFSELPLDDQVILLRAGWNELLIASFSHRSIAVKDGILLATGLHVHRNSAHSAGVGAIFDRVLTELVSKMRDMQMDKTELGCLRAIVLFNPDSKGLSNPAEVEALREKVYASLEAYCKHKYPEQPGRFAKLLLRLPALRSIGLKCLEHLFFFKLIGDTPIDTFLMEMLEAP
Experimental: (§1) Synthetic compounds were screened in an effort to find more specific LXR inhibitors. CV-1 cells were maintained and transfected using known methods. Forman et al., Cell 81: 687-693, 1995. CV-1 cells were transiently transfected with Gal-hLXRα, the RXR LBD, the UASGx4 TK Luc reporter and CMX-β-gal as an internal control, either in standard or in lipid-stripped serum. After transfection, cells were treated for approximately 40 hours with phenol red-free DMEM-FBS containing the indicated compounds at the following concentrations: T0901317 (100 nM), Clotrimazole (10 μM), S883417(10 μM) and S100250 (10 μM), unless otherwise specified. After exposure to ligand, the cells were harvested and assayed for luciferase and β-galactosidase activity. The luciferase activity was normalized to the internal β-galactosidase control (reporter activity).
(§2) The ability of these compounds to repress LXRα and LXRβ was compared by transfecting CV-1 cells with either the RXR LBD alone or the RXR LBD together with either Gal-LXRα or Gal-LXRβ.
Transfections were performed as described above, with increasing concentrations of Clotrimazole.

[2] = target: T2, RXR (Homo sapiens, UniProt P19793); assay: Transient transfection assay RXR LBD alone, UASGx4 TK Luc reporter, CV-1 cells; format: cell-based; conditions: lipid-stripped serum
T2 construct: transfecting CV-1 cells with either the RXR LBD alone; expressed in transfected cells; host or cells: CV-1 cells
Experimental: as §1, §2

[3] = target: T3, LXRα - coactivator SRC-1 interaction (Homo sapiens, UniProt Q13133); assay: Mammalian two-hybrid assay Gal-SRC-1 / VP-LXRα LBD / RXR LBD in CV-1 cells; format: cell-based
T3 construct: expression plasmids for Gal-SRC-1, VP-LXRα LBD or VP-LXRβ LBD, the RXR LBD; expressed in transfected cells; host or cells: CV-1 cells
T3 sequence (Q13133 209-447 limits assumed, one chain of several): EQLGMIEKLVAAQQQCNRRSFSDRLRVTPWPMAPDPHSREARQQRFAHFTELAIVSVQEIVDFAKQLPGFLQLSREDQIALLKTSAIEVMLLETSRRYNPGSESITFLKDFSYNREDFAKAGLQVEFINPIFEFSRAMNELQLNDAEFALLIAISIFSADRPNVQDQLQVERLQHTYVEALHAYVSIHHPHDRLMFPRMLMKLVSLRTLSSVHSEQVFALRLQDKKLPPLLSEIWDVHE
Source text: (§3) One characteristic of nuclear receptor antagonists is their ability to displace coactivators bound to ligand-activated receptors. Thus, if Clotrimazole is an antagonist of LXR, it should inhibit the recruitment of coactivators. To test this, a mammalian two-hybrid assay was used. In this assay, CV-1 cells were transfected with Gal-SRC-1, VP-LXRα or VP-LXRβ, the RXR LBD and a reporter construct. In this type of assay, therefore, only a protein-protein interaction between the coactivator SRC-1 and LXR can result in transcriptional activity. The mammalian two-hybrid assay of FIG. 6 was performed by transfecting CV-1 cells with expression plasmids for Gal-SRC-1, VP-LXRα LBD or VP-LXRβ LBD, the RXR LBD and the USAGx4 Tkluc reporter. Cells were treated for 40 hours with Clotrimazole before luciferase and β-galactosidase activities were measured. Gal-SRC in FIG. 6 refers to a fusion between the Gal4 DNA binding domain and the three receptor interaction domains of SRC-1.

[4] = target: T4, LXRβ - coactivator SRC-1 interaction (Homo sapiens, UniProt P55055); assay: Mammalian two-hybrid assay Gal-SRC-1 / VP-LXRβ LBD / RXR LBD in CV-1 cells; format: cell-based; conditions: 40 hours
T4 construct: expression plasmids for Gal-SRC-1, VP-LXRα LBD or VP-LXRβ LBD, the RXR LBD; expressed in transfected cells; host or cells: CV-1 cells
Source text: as §3

[5] = tested on: SRE reporter (FAS proximal promoter); assay: SRE reporter (FAS proximal promoter-luciferase) assay in CV-1 cells; format: cell-based
Experimental: Since LXR regulates SREBP-1c expression, LXR also should regulate activities downstream of SREBP-1c. To test this, CV-1 cells were transiently transfected with as in Example 6, but with the SRE or the SREm reporter, SREBP-1c-dependent reporter constructs consisting of the FAS proximal promoter linked to the luciferase gene. […] See Wang et al., Mol. Cell 3:543-553, 1999, the disclosures of which are hereby incorporated by reference. Cells then were treated as in Example 6 with the indicated compounds, Clotrimazole or 25-hydroxycholesterol (25-OH cholesterol). 25-OH cholesterol is known to repress the synthesis of SREBP-1c and is therefore used to eliminate the effects of this transcription factor on the FAS promoter (SRE).

[6] = tested on: NIH3T3-L1 adipocytes; assay: Triglyceride content (Nile Red) of NIH3T3-L1 cells differentiated to adipocytes; format: cell-based; conditions: 7 days
Experimental: NIH 3T3-L1 cells were maintained in growth media consisting of Dulbecco's modified Eagle's medium (DMEM) supplemented with 10% calf bovine serum (CBS), 50 U/ml penicillin G and 50 μg/ml streptomycin sulfate. To induce NIH 3T3-L1 differentiation into adipocytes, confluent cells were transferred from their growth media to DMEM containing 10% fetal bovine serum (FBS), 5 μg/ml insulin, 0.5 mM 3-isobutyl-1-methylxanthine (IBMX) and 1 μM dexamethasone for 7 days. During the differentiation period, cells also optionally received 200 nM T0901317, 7.5 μM Clotrimazole or both.
NIH3T3-L1 cells were allowed to differentiate for 7 days in the presence of a well-established differentiation cocktail containing dexamethazole (1 μm), IBMX (0.5 mM) and insulin (5 μg/ml) in the absence or presence of T0901317 (200 nM) or Clotrimazole (7.5 μm). The cells then were fixed and stained with Nile Red, which stains triglycerides (TG) green, and DAPI to visualize nuclei (in blue). TG content of the cell reflected increased or decreased lipogenesis.

[7] = target: PPARα (Homo sapiens, UniProt Q07869); assay: PPARα activity (data not shown); format: cell-based
Sequence of PPARα (Q07869 whole entry, species assumed): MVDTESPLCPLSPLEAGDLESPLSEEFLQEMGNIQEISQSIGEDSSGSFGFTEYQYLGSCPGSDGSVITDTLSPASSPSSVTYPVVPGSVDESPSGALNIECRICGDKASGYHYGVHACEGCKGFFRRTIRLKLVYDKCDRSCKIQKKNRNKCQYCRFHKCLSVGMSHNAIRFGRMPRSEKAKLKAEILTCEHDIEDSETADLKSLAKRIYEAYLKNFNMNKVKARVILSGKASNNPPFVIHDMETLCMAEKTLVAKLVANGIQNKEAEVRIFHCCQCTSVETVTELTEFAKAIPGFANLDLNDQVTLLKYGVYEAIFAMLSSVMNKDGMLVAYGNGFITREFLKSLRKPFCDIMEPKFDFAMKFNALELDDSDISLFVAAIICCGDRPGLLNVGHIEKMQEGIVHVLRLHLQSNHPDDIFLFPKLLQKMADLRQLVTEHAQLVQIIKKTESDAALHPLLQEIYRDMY

[8] = target: mouse PXR (Mus musculus, UniProt O54915); conditions: cited from earlier work
Sequence of mouse PXR (O54915 whole entry): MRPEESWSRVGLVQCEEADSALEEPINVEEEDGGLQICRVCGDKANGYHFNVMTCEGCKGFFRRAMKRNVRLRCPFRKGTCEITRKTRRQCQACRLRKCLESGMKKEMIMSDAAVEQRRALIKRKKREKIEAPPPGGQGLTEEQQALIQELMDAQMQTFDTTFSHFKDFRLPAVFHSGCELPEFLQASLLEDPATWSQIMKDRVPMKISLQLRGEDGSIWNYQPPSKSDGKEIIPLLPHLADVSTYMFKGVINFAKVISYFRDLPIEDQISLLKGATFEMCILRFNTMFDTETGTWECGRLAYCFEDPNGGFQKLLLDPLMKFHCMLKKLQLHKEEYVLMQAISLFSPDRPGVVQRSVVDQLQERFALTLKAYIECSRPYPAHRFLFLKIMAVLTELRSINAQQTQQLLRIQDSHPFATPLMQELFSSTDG

repression of LXRβ activity ([1]; 10 μM, approximately 40 hours, lipid-stripped serum): powerful antagonist
EC50 ([1]; dose-response, increasing concentrations, read-out: EC50 for repression of LXRβ constitutive activity): ~10 µM
effect on RXR [2]: no effect
interaction of LXRα with coactivator SRC-1 ([3]; 40 hours, two-hybrid): inhibited this interaction
basal transcription ([3]; two-hybrid specificity control): did not inhibit basal transcription
interaction of LXRβ with coactivator SRC-1 [4]: inhibited this interaction
effect on PPARα activity [7]: no effect
Compound: Clc1ccccc1C(c1ccccc1)(c1ccccc1)n1ccnc1 [Clotrimazole]
LXRα induction of SRE reporter activity ([5]; LXRα co-transfected (3-fold increase)): prevented this induction
LXRβ induction of SRE reporter activity ([5]; LXRβ co-expression (almost 2-fold increase)): prevented this induction
activity of reporter containing mutated SRE ([5]; SREm reporter): no significant effects
repression of SRE reporter ([5]; absence of LXR): only a weak repressive effect
TG content compared to treatment with T0901317 alone ([6]; Clotrimazole 7.5 μm plus T0901317 200 nM): reduction in TG content
TG content compared to differentiation cocktail only ([6]; T0901317 200 nM or Clotrimazole 7.5 μm): decreased
activity on mouse PXR [8]: agonist
